Measured values from PMC8975272, “Novel glucagon-like peptide-1 analogue exhibits potency-driven G-protein biased agonism with promising effects on diabetes and diabetic dry eye syndrome” (Bioengineered, 2022).

Legend:
[1] = Pharmacokinetics in CD-1 mice; format: in vivo, mouse
GLP-1R [2] = biological target: T1, GLP-1R (Homo sapiens, UniProt P43220); assay: GLP-1R endocytosis, high content imaging; format: cell-based; design: expressed in transfected cells; conditions: no clear difference in kinetics between the two ligands
T1 sequence (P43220 24-463): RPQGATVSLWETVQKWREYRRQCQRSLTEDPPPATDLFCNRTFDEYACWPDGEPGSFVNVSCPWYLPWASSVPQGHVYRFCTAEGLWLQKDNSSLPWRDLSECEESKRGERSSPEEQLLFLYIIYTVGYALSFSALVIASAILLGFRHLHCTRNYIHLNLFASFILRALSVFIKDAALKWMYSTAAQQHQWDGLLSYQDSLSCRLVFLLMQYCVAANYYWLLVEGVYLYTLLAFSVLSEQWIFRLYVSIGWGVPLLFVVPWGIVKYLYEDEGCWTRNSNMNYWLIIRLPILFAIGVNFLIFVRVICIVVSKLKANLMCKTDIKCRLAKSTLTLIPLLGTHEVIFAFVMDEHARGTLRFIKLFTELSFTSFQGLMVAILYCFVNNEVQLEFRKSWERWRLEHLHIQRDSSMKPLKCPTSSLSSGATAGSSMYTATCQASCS

db/db mice = assay: Chronic administration study in db/db mice; format: in vivo, mouse
Protocol: The diabetic db/db mice (half male and half female, 8–12 weeks, body weight- 40-50 g) were brought from Cavens Company Ltd. (Changzhou) and housed in individual ventilated cages with free access to food and water and maintained on a 12-hour light/dark cycle. Animals were acclimatized for 3 days. On day 0, each animal was weighed using a digital weighing balance. Blood was collected by retro-orbital plexus puncture. Blood glucose level was measured using a hand-held blood glucose meter (Johnson & Johnson) and %HbA1c was measured using auto fluorescence immunoanalyzer.
Animals were divided into treatment groups (n = 8 per group; 4 male, 4 female) with matched baseline %HbA1c levels (mean 7.3%). Vehicle, SM102 (1, 3 and 9 nmol/kg), Semaglutide (15 nmol/kg) were subcutaneously injected into the neck region of the animals on every other day for 4 weeks.
Body weight and food intake were monitored serially. On day 29 of the study, 24 h following the last dose, blood was collected for measurement of %HbA1c, triglycerides, insulin, C-peptide and glucagon. The function of β-cell was assessed via calculating the […] from blood concentrations of glucose and insulin.

diabetic DES mice = assay: Chronic administration study in diabetic DES mice; format: in vivo, mouse; conditions: for increase in number of conjunctival goblet cells vs control mice: PAS staining
Protocol: DES in db/db mice was induced by twice daily administration of 5 μL of 0.2% benzalkonium chloride (Sigma-Aldrich) for 7 days. All diabetic DES mice were divided into vehicle group, SM102 treatment groups (1, 3 and 9 nmol/kg), Semaglutide treatment group (15 nmol/kg), and dulaglutide (1.5 nmol/kg) (n = 8 per group; 4 male, 4 female). The drugs were injected subcutaneously into the neck region of the animals on every other day for 4 weeks.
The mouse’s lower eyelid was gently pulled downward, and a line with a 1 mm length of the phenol red cotton thread was placed on the upper part of the palpebral conjunctiva for 15 seconds near the inner part about one-third of the distance from the outer corner of the eyelid. The length of the colored part of the phenol red thread was recorded as the tear secretion. 1 μL of 0.1% liquid fluorescein sodium was instilled into the conjunctival sac followed by three blinks, and tear breakup time (BUT) was recorded in seconds.
[…] The levels of interleukin-6 (IL-6), interleukin-1β (IL-1β), tumor necrosis factor-α (TNF-α), transforming growth factor β1 (TGF-β1) and malondialdehyde (MDA) as well as superoxide dismutase (SOD) activity in the supernatant were measured using appropriate ELISA kits brought from R&D company (USA). The expression levels of p38/p-p38, JNK/pJNK and ERK/p-ERK were analyzed by Western blot methods as previously reported.
Hematoxylin and eosin (H&E) staining were performed as described below: Corneas were fixed in 4% formalin. After dehydration, the specimens were embedded in paraffin and serial sections of 6 μm thickness were cut and stained with a hematoxylin-eosin reagent. Periodic Acid–Schiff (PAS) staining were performed as described below: Conjunctiva was fixed in 4% formalin. After dehydration, the specimens were embedded in paraffin and serial sections of 6 μm thickness were cut and stained with 0.5% PAS staining. The number of positively stained cup-shaped cells in the stained conjunctival sections was counted using image-Pro Plus6.0 (MediaCybernetics, USA).

GLP-1R [3] = biological target: T1, GLP-1R; assay: GLP-1R binding affinity; design: expressed in transfected cells; conditions: compared to Semaglutide
INS-1 832/3 cells = assay: Insulin release after overnight incubation, INS-1 832/3 cells; format: cell-based; conditions: 16 h (overnight), range of concentrations, 11 mM glucose, HTRF
Protocol: (§1) Mouse islets (10/well) were incubated in triplicate for each condition and treatment. Islets were preincubated for 1 hour in 3 mM glucose KRH buffer prior to secretion assay (30 min) in 3 mM or 11 mM glucose with vehicle or 100 nM SM102 or Semaglutide. The secretion medium was then collected to measure the insulin and proinsulin concentrations using an insulin HTRF kit (Cisbio Bioassays). INS-1 832/3 cells were treated with the indicated concentrations of SM102 or Semaglutide for 16 h in complete RPMI1640 medium at 11 mM glucose. A sample of supernatant was collected and analyzed for insulin content by HTRF.

mouse pancreatic islets = assay: Static acute insulin secretion, mouse islets; format: cell-based
Protocol: Mice were euthanized by cervical dislocation and pancreatic islets isolated by collagenase digestion as previously described and cultured in RPMI 1640 medium, 11 mM glucose, supplemented with 10% (v/v) FBS plus penicillin (100 units/mL), and streptomycin (0.1 mg/mL) at 37°C in an atmosphere of humidified air (95%) and CO2 (5%).
as §1, with “Islets were preincubated for 1 hour in 3 mM glucose KRH buffer prior to secretion assay (30 min) in 3 mM or 11 mM glucose with vehicle or 100 nM SM102 or Semaglutide.” left out

hGLP-1 R = biological target: T2, hGLP-1 R (Homo sapiens, UniProt P43220); assay: GLP-1R recycling assay (exendin-4-TMR uptake); format: cell-based; conditions: 100 nM agonist 1 hour, washout, exendin-4-TMR 1 or 3 hours; compared to Semaglutide
T2 construct: expressed in transfected cells; host or cells: INS-1 832/3 (abstract: 832/13) rat insulinoma cells
T2 sequence (P43220 24-463): as above
Protocol: INS-1 hGLP-1 R cells were seeded the day before the assay in 96-well imaging plates. Cells were washed twice with PBS, then stimulated with 100 nM of respective agonist in complete media, with an equal number of wells kept as vehicles. Following stimulation of the cells for 1 hour, they were washed twice with PBS and labeled with exendin-4-TMR13 for either 1 hour or 3 hours, washed again with PBS, and imaged via high content microscopy.

GLP-1R [4] = biological target: T1, GLP-1R; assay: cAMP accumulation (HTRF); format: cell-based; design: expressed in transfected cells
Protocol: (§2) HEK293 cells stably expressing human GLP-1R (hGLP-1 R) (generated in-house using HEK293 cell line purchased from ATCC, Cat# CRL-1573) were maintained in Dulbecco’s Modified Eagle Medium (DMEM, Gibco, 11,054,020) with 10% fetal bovine serum (FBS, Gibco, 10,099,133 C), 1% penicillin/streptomycin (Gibco, 10,378,016) and 1 mg/mL G418 (Gibco, 10,131,035). Wild-type INS-1 832/3 cells, or INS-1 832/3 cells lacking endogenous GLP-1 R (generated in-house using INS-1 832/3 cell line purchased from NTCC, Cat# CVCL_ZL55) were maintained in RPMI-1640 (Gibco, 22,400,071) with 1 mM sodium pyruvate (Gibco, 11,360,070), 50 μM β-mercaptoethanol (Gibco, 21,985,023), 10% FBS, and 1% penicillin/streptomycin. PathHunter CHO-K1-βarr2-EAGLP1R cells (DiscoverX) were maintained in F12 medium (Gibco, 11,320,033) with 10% FBS, 1% penicillin/streptomycin, 1 mg/mL G418 and 250 μg/mL hygromycin (Gibco, 10,687,010).
HEK293 stably expressing hGLP-1 R cells were stimulated with agonist for 30 min at 37°C in serum-free medium (Gibco, 12,753,018). cAMP was determined at the end of the incubation period by homogenous time resolved fluorescence (HTRF; cAMP Dynamic 2 kit, Cisbio) using a Molecular Devices iD5 plate reader.

GLP-1R [5] = biological target: T1, GLP-1R; assay: PathHunter β-arrestin-2 recruitment; format: cell-based; design: host or cells: CHO-K1 (PathHunter); conditions: SM102 vs Semaglutide; 30 min at 37°C, luminescence
Protocol: as §2
PathHunter CHO-K1-βarr2-EA-GLP-1 R cells were stimulated with agonist for 30 min at 37°C in Ham’s F12 medium (Gibco, 11,765,054) without FBS. At the end of the incubation period cells were lysed by addition of PathHunter detection reagents and luminescent signal was subsequently recorded from each well.

[6] = all 3 doses of SM102, Western blot, p < 0.05
[7] = corneal homogenates, 4 weeks, ELISA

## CC[C@H](C)[C@H](NC(=O)[C@H](Cc1ccccc1)NC(=O)[C@H](CCC(=O)O)NC(=O)[C@H](CCCCNC(=O)COCCOCCNC(=O)COCCOCCNC(=O)CC[C@H](NC(=O)CCCCCCCCCCCCCCCCC(=O)O)C(=O)O)NC(=O)[C@H](C)NC(=O)[C@H](C)NC(=O)[C@H](CCC(N)=O)NC(=O)CNC(=O)[C@H](CCC(=O)O)NC(=O)[C@H](CC(C)C)NC(=O)[C@H](Cc1ccc(O)cc1)NC(=O)[C@H](CO)NC(=O)[C@H](CO)NC(=O)[C@@H](NC(=O)[C@H](CC(=O)O)NC(=O)[C@H](CO)NC(=O)[C@@H](NC(=O)[C@H](Cc1ccccc1)NC(=O)[C@@H](NC(=O)CNC(=O)[C@H](CCC(=O)O)NC(=O)C(C)(C)NC(=O)[C@@H](N)Cc1cnc[nH]1)[C@@H](C)O)[C@@H](C)O)C(C)C)C(=O)N[C@@H](C)C(=O)N[C@@H](Cc1c[nH]c2ccccc12)C(=O)N[C@@H](CC(C)C)C(=O)N[C@H](C(=O)N[C@@H](CCCNC(=N)N)C(=O)NCC(=O)N[C@@H](CCCNC(=N)N)C(=O)NCC(=O)O)C(C)C [Semaglutide, reference compound]
[1]; subcutaneous injection, same dose, CD-1 mice
  Plasma half-life relative to SM-102: comparable

## CC[C@H](C)[C@H](NC(=O)[C@H](Cc1ccccc1)NC(=O)[C@H](CCC(=O)O)NC(=O)[C@H](CCCCNC(=O)COCCOCCNC(=O)C(C)(C)NC(=O)CC[C@H](NC(=O)CCCCCCCCCCCCCCCCC(=O)O)C(=O)O)NC(=O)[C@H](C)NC(=O)[C@H](C)NC(=O)[C@H](CCC(N)=O)NC(=O)CNC(=O)[C@H](CCC(=O)O)NC(=O)[C@H](CC(C)C)NC(=O)[C@H](Cc1ccc(O)cc1)NC(=O)[C@H](CO)NC(=O)[C@H](CO)NC(=O)[C@@H](NC(=O)[C@H](CC(=O)O)NC(=O)[C@H](CO)NC(=O)[C@@H](NC(=O)[C@H](Cc1ccccc1)NC(=O)[C@@H](NC(=O)CNC(=O)[C@H](CCC(=O)O)NC(=O)C(C)(C)NC(=O)[C@@H](N)Cc1c[nH]cn1)[C@@H](C)O)[C@@H](C)O)C(C)C)C(=O)N[C@@H](C)C(=O)N[C@@H](Cc1c[nH]c2ccccc12)C(=O)N[C@@H](CC(C)C)C(=O)N[C@H](C(=O)N[C@@H](CCCNC(=N)N)C(=O)NCC(=O)N[C@@H](CCCNC(=N)N)C(=O)NCC(=O)N[C@@H](CC(C)C)C(N)=O)C(C)C [SM102]
GLP-1R [2]
  GLP-1 R endocytosis: rapid GLP-1 R endocytosis
db/db mice; SM102 1 nmol/kg, 4 weeks of treatment
  improvement in blood glucose and insulin secretion vs Semaglutide 15 nmol/kg: comparable to Semaglutide
db/db mice; SM102 3 nmol/kg s.c. every other day, 28 days
  therapeutic effect vs Semaglutide 15 nmol/kg: comparable
db/db mice; SM102 9 nmol/kg s.c. every other day, 28 days
  therapeutic effect vs Semaglutide 15 nmol/kg: weight loss, glucose, HOMA-IR: superior
Diabetic DES mice; 4-week treatment
  breakup time of tear film: significantly prolonged
Diabetic DES mice; 4 weeks of treatment, phenol red cotton thread
  tear secretion level vs control group: significantly enhanced
Diabetic DES mice; SM102 1 nmol/kg, 4 weeks
  increase in number of conjunctival goblet cells vs control mice: approximately 1 fold
Diabetic DES mice; SM102 3 nmol/kg, 4 weeks
  increase in number of conjunctival goblet cells vs control mice: ~4 fold
Diabetic DES mice; SM102 9 nmol/kg, 4 weeks
  tear secretion level vs Semaglutide or dulaglutide: significantly higher
  increase in number of conjunctival goblet cells vs control mice: ~5 fold
Diabetic DES mice; [6]
  phosphorylation level of ERK vs model group: significantly lower
  phosphorylation level of JNK vs model group: significantly lower
  phosphorylation level of p38 vs model group: significantly lower
Diabetic DES mice; corneal homogenate, 4 weeks, ELISA
  concentration of MDA vs vehicle group: significantly decreased
Diabetic DES mice; [7]
  level of IL-1β vs control mice: significantly reduced
  level of IL-6 vs control mice: significantly reduced
  level of TGF-β1 vs control mice: increased
  level of TNF-α vs control mice: significantly reduced
Diabetic DES mice; dose range 1 ~ 9 nmol/kg, 4 weeks
  SOD activity: dose-dependent significant increase
Diabetic DES mice; medium and high dose SM102, 4 weeks
  corneal tissue damage (H&E staining): significantly reversed corneal tissue damage
GLP-1R [3]
  GLP-1 R binding affinity: moderate increases
INS-1 832/3 cells
  insulin release responses, SM102 vs Semaglutide: virtually indistinguishable
Mouse pancreatic islets; 1 and 10 nM, data not shown
  glucose-stimulated insulin secretion, SM102 vs Semaglutide, lower doses: differences were not apparent
Mouse pancreatic islets; islets from C57BL/6 mice, 11 mM glucose, 100 nM agonist, 30 min, no difference between agonists
  glucose-stimulated insulin secretion (GSIS): potentiation of GSIS
hGLP-1 R
  GLP-1 R recycling: modestly reduced recycling
GLP-1R [4]; compared to Semaglutide, agonist 30 min at 37°C, serum-free medium, HTRF, n = 5
  cAMP signaling potency: signaling potency was increased
GLP-1R [4]; subtracted pEC50 estimates, SM102 vs Semaglutide, one-way ANOVA with Tukey's test
  signaling selectivity in favor of cAMP compared to endocytosis and β-arrestin-2 recruitment: significant signaling selectivity in favor of cAMP
[1]; mouse, plasma, sc, single subcutaneous injection, 1 mg/kg, male CD-1 mice
  half-life: ~47.6 h
GLP-1R [5]
  β-arrestin-2 recruitment response potency or Emax: no differences in response potency or Emax
